Results: ChEMBL document CHEMBL4665898, “Semisynthetic Analogs of the Antibiotic Fidaxomicin-Design, Synthesis, and Biological Evaluation” (ACS Med Chem Lett, 2020)

System: Mycobacterium tuberculosis
Experiment: Antimycobacterial activity against multi-drug resistant Mycobacterium tuberculosis after 5 days in presence of 7H9 medium by CLSI-based broth microdilution method
Format: functional
Conditions: 120 h, time 5 day

CCc1c(Cl)c(O)c(Cl)c(O)c1C(=O)O[C@@H]1[C@@H](O)[C@@H](OC)[C@@H](OC/C2=C\C=C\C[C@H](O)/C(C)=C/[C@H](CC)[C@@H](O[C@@H]3OC(C)(C)[C@@H](OC(=O)C(C)C)[C@H](O)[C@@H]3O)/C(C)=C/C(C)=C/C[C@@H]([C@@H](C)O)OC2=O)O[C@H]1C
MIC: < 8 ng/mL
